{
  "source": "paper PMC6161302",
  "about": "“Oral Bioavailability of Kinsenoside in Beagle Dogs Measured by LC-MS/MS: Improvement of Ex Vivo Stability of a Lactone-Containing Compound” (Pharmaceutics, 2018)",
  "key": {"[1]": {"assay": "Pharmacokinetic and bioavailability study of KD in beagle dogs (intravenous and oral)", "format": "in vivo, beagle dog", "conditions": "for Tmax / AUC(0-t): beagle; for k el: read-out: λz (converted)", "description": "The validated method was applied to a preclinical pharmacokinetic and bioavailability study of KD in beagle dogs following intravenous and oral administration. The study protocol (Project ID: HUST-D-201802004) was approved on 5 March 2018 by the Animal Ethics Committee in Tongji Medical College, Huazhong University of Science and Technology (Wuhan, China). Six beagle dogs (3 males and 3 females) weighing 10.0 ± 2.0 kg were purchased from Ruikesen Experimental Animal Co., Ltd. (Wuhan, China). All dogs were individually housed at a temperature of 25 °C and 50% relative humidity under a 12 h light/dark cycle. A laboratory standard diet and water were provided ad libitum. After overnight fasting with unlimited access to water, the six beagle dogs were randomly divided into two groups. One group was intravenously injected via lateral saphenous vein with 3 mg/kg KD, while the other group was given a single oral dose of 3 mg/kg KD. After a 7-day washout period, each group received the other treatment. For intravenous administration, blood samples (approximately 1 mL) were collected via cephalic vein into 3 mL K2EDTA-containing vacutainer tubes at pre-dose and at 0.083, 0.25, 0.5, 0.75, 1, 1.25, 1.5, 2, 2.5, 3, 4, and 5 h after administration. For oral administration, blood samples (approximately 1 mL) were collected at pre-dose and at 0.25, 0.5, 0.75, 1, 1.25, 1.5, 2, 2.5, 3, 4, 5, 6, and 7 h post-dose. Blood samples were maintained on wet ice and centrifuged under 4 °C at 3500 × g for 5 min to obtain plasma. Plasma samples were immediately transferred to pre-cooled plastic Eppendorf tubes and stored at −80 °C until analyzed.\nThe pharmacokinetic parameters were calculated using noncompartmental analysis by Phoenix WinNonlin software (Version 6.4, Pharsight Corporation, Princeton, NC, USA). The maximum plasma concentration (Cmax) and time to reach Cmax (Tmax) were obtained directly from the plasma concentration time course. The area under the plasma concentration versus time curve (AUC) from time zero to the last measured time point (AUC0–t) and from time zero to infinity (AUC0–∞) were estimated using the log-linear trapezoidal rule, while the elimination half-life (t1/2), the total body clearance (CL), and the apparent volume of distribution (Vd) were processed by Phoenix WinNonlin software. Oral bioavailability (F) was calculated using the formula F = (AUCpo/AUCiv) × (Doseiv/Dosepo)."}, "[2]": {"assay": "Stability of KD in fresh dog whole blood", "format": "in vitro ADME, beagle dog", "experimental": "(§1) The stability of KD in fresh dog whole blood and plasma was studied by decreasing pH, lowering temperature, and adding different esterase inhibitors. All experiments were performed in triplicate using three different lots of fresh dog whole blood or plasma. To decrease the pH of the matrixes, 1% formic acid (FA) or 1% AA was individually added to the fresh blank whole blood or plasma with a ratio of 1:9. Likewise, DDVP, NaF, and PMSF were separately added to fresh blank whole blood or plasma to obtain a final concentration of 50 mM. After 5 min pre-incubation, KD was spiked with pretreated whole blood or plasma to obtain final concentrations of 15, 150, and 1500 ng/mL. The whole blood mixture was maintained at room temperature or on wet ice for 2 h except for samples of time zero, which were centrifuged immediately to collect plasma, while the plasma mixture was maintained at room temperature or on wet ice for 0, 2, and 6 h. Then, the obtained plasma samples were cleaned up using the previously mentioned sample preparation procedures. The remaining percentage of KD was calculated by dividing the plasma concentration of KD under different incubation conditions by the concentration of time zero samples [13]."}, "[3]": {"assay": "Stability of KD in fresh dog plasma", "format": "in vitro ADME, beagle dog", "experimental": "as §1"}, "[4]": {"assay": "Method-validation stability of kinsenoside in beagle dog plasma under various storage conditions", "format": "in vitro ADME", "experimental": "The stability of stock solutions (2.5 mg/mL for KD and 1 mg/mL for IS) and working solutions (125 and 50,000 ng/mL for KD and 500 ng/mL for IS) was evaluated at room temperature for 6 h and at −80 °C for 31 days. The matrix stability was evaluated from three replicates of each QC sample stored in different conditions using freshly prepared calibration standards. The QC samples were analyzed after storage on wet ice for 2 h (short-term stability) and at −80 °C for 21 days (long-term stability). The freeze–thaw stability was determined after freezing at −80 °C and thawing on wet ice for three cycles. To evaluate the post-preparative stability, QC samples were analyzed after being held in the autosampler for 24 h at 4 °C. The samples for stability evaluation were considered stable if the deviation was within ±15% of the nominal concentration."}, "liver microsomal enzyme": {"system": "liver microsomal enzyme", "design": "method as in doi:10.5478/MSL.2015.6.2.48", "conditions": "cited from earlier work"}, "[5]": {"design": "method as in PMID 26686829", "conditions": "cited from earlier work"}, "[6]": {"conditions": "both sexes, dog, plasma, beagle dogs, intravenous, 3 mg/kg"}, "[7]": {"conditions": "both sexes, dog, plasma, beagle dogs, oral, 3 mg/kg"}, "[8]": {"conditions": "plasma samples after three freeze–thaw cycles, nominal 15 ng/mL"}, "[9]": {"conditions": "plasma samples after three freeze–thaw cycles, nominal 150 ng/mL"}, "[10]": {"conditions": "plasma samples after three freeze–thaw cycles, nominal 1500 ng/mL"}, "[11]": {"conditions": "plasma samples on wet ice for 2 h, nominal 15 ng/mL"}, "[12]": {"conditions": "plasma samples on wet ice for 2 h, nominal 150 ng/mL"}, "[13]": {"conditions": "plasma samples on wet ice for 2 h, nominal 1500 ng/mL"}, "[14]": {"conditions": "plasma samples stored at −80 °C for 21 days, nominal 15 ng/mL"}, "[15]": {"conditions": "plasma samples stored at −80 °C for 21 days, nominal 150 ng/mL"}, "[16]": {"conditions": "plasma samples stored at −80 °C for 21 days, nominal 1500 ng/mL"}, "[17]": {"conditions": "post-preparative samples stored at 4 °C for 24 h, nominal 15 ng/mL"}, "[18]": {"conditions": "post-preparative samples stored at 4 °C for 24 h, nominal 150 ng/mL"}, "[19]": {"conditions": "post-preparative samples stored at 4 °C for 24 h, nominal 1500 ng/mL"}},
  "note": "Read-outs that look alike come from different tables or passages of the source.",
  "data": [
    {"smiles": "O=C1C[C@@H](O[C@@H]2O[C@H](CO)[C@@H](O)[C@H](O)[C@H]2O)CO1", "note": "[kinsenoside, Kinsenoside]", "values": [
      {"measurement": "Tmax", "setting": "[1]; both sexes, dog, plasma, iv, 3 mg/kg, beagle dogs", "value": 5, "unit": "min"},
      {"measurement": "AUC(0-t)", "setting": "[1]; both sexes, dog, plasma, iv, 3 mg/kg, beagle dogs, intravenous, 3 mg/kg, read-out: AUC0–t", "value": "6820 ± 295", "unit": "ng·h/mL"},
      {"measurement": "AUC(0-t)", "setting": "[1]; both sexes, dog, plasma, iv, 3 mg/kg, beagle dogs, intravenous, 3 mg/kg, read-out: mean AUC0-t (converted)", "value": 114, "unit": "ng·h/mL"},
      {"measurement": "Tmax", "setting": "[1]; both sexes, dog, plasma, po, 3 mg/kg, beagle dogs", "value": "~62.4", "unit": "min"},
      {"measurement": "AUC(0-t)", "setting": "[1]; both sexes, dog, plasma, po, 3 mg/kg, beagle dogs, oral, 3 mg/kg, read-out: AUC0–t", "value": "1880 ± 17.6", "unit": "ng·h/mL"},
      {"measurement": "AUC(0-t)", "setting": "[1]; both sexes, dog, plasma, po, 3 mg/kg, beagle dogs, oral, 3 mg/kg, read-out: mean AUC0-t (converted)", "value": 31.3, "unit": "ng·h/mL"},
      {"measurement": "AUC(0-inf)", "setting": "[1]; [6]", "value": "6830 ± 295", "unit": "ng·h/mL"},
      {"measurement": "Cmax", "setting": "[1]; [6]", "value": 11400, "unit": "ng/mL"},
      {"measurement": "Vd", "setting": "[1]; [6]", "value": "0.3 ± 0.0171", "unit": "L/kg"},
      {"measurement": "clearance", "setting": "[1]; [6]", "value": 7.33, "unit": "mL/min/kg"},
      {"measurement": "half-life", "setting": "[1]; [6]", "value": "28.2 ± 0.78", "unit": "min"},
      {"measurement": "k el", "setting": "[1]; [6]", "value": 0.000408, "unit": "s⁻¹"},
      {"measurement": "bioavailability", "setting": "[1]; both sexes, dog, plasma, beagle dogs, oral 3 mg/kg vs intravenous 3 mg/kg, read-out: Bioavailability (absolute oral)", "value": 27.6, "unit": "%"},
      {"measurement": "AUC(0-inf)", "setting": "[1]; [7]", "value": "1910 ± 42.5", "unit": "ng·h/mL"},
      {"measurement": "Cmax", "setting": "[1]; [7]", "value": "965 ± 59.7", "unit": "ng/mL"},
      {"measurement": "half-life", "setting": "[1]; [7]", "value": "54.9 ± 5.64", "unit": "min"},
      {"measurement": "k el", "setting": "[1]; [7]", "value": 0.000212, "unit": "s⁻¹"},
      {"measurement": "bioavailability of KD relative to the majority of extensively researched isoflavone glycosides", "setting": "[1]; comparison with literature values", "value": "at least 4 fold"},
      {"measurement": "KD remaining", "setting": "[2]; 2 h incubation at room temperature", "value": 60, "unit": "%"},
      {"measurement": "KD remaining", "setting": "[2]; 2 h incubation on wet ice, three concentration levels (15, 150, 1500 ng/mL)", "value": "around 90%"},
      {"measurement": "KD remaining", "setting": "[3]; dog plasma, 2 h incubation on wet ice", "value": "more than 90%"},
      {"measurement": "percentage remaining of KD", "setting": "[3]; neutral and acidified dog plasma, 6 h incubation on wet ice", "value": "around 85%"},
      {"measurement": "Accuracy (stability, % of nominal)", "setting": "[4]; [8]", "value": 89.53, "unit": "%"},
      {"measurement": "Calculated Conc.", "setting": "[4]; [8]", "value": "13.43 ± 0.46", "unit": "ng/mL"},
      {"measurement": "Accuracy (stability, % of nominal)", "setting": "[4]; [9]", "value": 90.89, "unit": "%"},
      {"measurement": "Calculated Conc.", "setting": "[4]; [9]", "value": "136.33 ± 4.50", "unit": "ng/mL"},
      {"measurement": "Accuracy (stability, % of nominal)", "setting": "[4]; [10]", "value": 92.44, "unit": "%"},
      {"measurement": "Calculated Conc.", "setting": "[4]; [10]", "value": "1386.67 ± 24.94", "unit": "ng/mL"},
      {"measurement": "Accuracy (stability, % of nominal)", "setting": "[4]; [11]", "value": 95.11, "unit": "%"},
      {"measurement": "Calculated Conc.", "setting": "[4]; [11]", "value": "14.27 ± 0.74", "unit": "ng/mL"},
      {"measurement": "Accuracy (stability, % of nominal)", "setting": "[4]; [12]", "value": 93.87, "unit": "%"},
      {"measurement": "Calculated Conc.", "setting": "[4]; [12]", "value": "140.80 ± 2.98", "unit": "ng/mL"},
      {"measurement": "Accuracy (stability, % of nominal)", "setting": "[4]; [13]", "value": 91.61, "unit": "%"},
      {"measurement": "Calculated Conc.", "setting": "[4]; [13]", "value": "1374.13 ± 24.63", "unit": "ng/mL"},
      {"measurement": "Accuracy (stability, % of nominal)", "setting": "[4]; [14]", "value": 90.89, "unit": "%"},
      {"measurement": "Calculated Conc.", "setting": "[4]; [14]", "value": "13.63 ± 0.36", "unit": "ng/mL"},
      {"measurement": "Accuracy (stability, % of nominal)", "setting": "[4]; [15]", "value": 91.78, "unit": "%"},
      {"measurement": "Calculated Conc.", "setting": "[4]; [15]", "value": "137.67 ± 2.62", "unit": "ng/mL"},
      {"measurement": "Accuracy (stability, % of nominal)", "setting": "[4]; [16]", "value": 93.78, "unit": "%"},
      {"measurement": "Calculated Conc.", "setting": "[4]; [16]", "value": "1406.67 ± 26.25", "unit": "ng/mL"},
      {"measurement": "Accuracy (stability, % of nominal)", "setting": "[4]; [17]", "value": 89.47, "unit": "%"},
      {"measurement": "Calculated Conc.", "setting": "[4]; [17]", "value": "13.42 ± 0.37", "unit": "ng/mL"},
      {"measurement": "Accuracy (stability, % of nominal)", "setting": "[4]; [18]", "value": 91.67, "unit": "%"},
      {"measurement": "Calculated Conc.", "setting": "[4]; [18]", "value": "137.50 ± 4.99", "unit": "ng/mL"},
      {"measurement": "Accuracy (stability, % of nominal)", "setting": "[4]; [19]", "value": 88.89, "unit": "%"},
      {"measurement": "Calculated Conc.", "setting": "[4]; [19]", "value": "1333.33 ± 34.60", "unit": "ng/mL"},
      {"measurement": "stability against liver microsomal enzyme-associated metabolism", "setting": "liver microsomal enzyme", "value": "stable"},
      {"measurement": "stability in rat plasma (ex vivo)", "setting": "[5]", "value": "unstable"}
    ]}
  ]
}
